Tests used:
Format in all cases: in vivo
[1] = system: Kochia (Kochia scoparia); assay: Test A preemergence; settings: Bassia scoparia, pre-emergence, 240 h, 0 to 100 scale where 0 is no effect and 100 is complete control, read-out: Kochia plant response rating
Procedure, shortened: (§1)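 Treatment is preemergence as a directed soil spray after planting, or postemergence at the one- to two-leaf stage, with test chemical in a non-phytotoxic solvent mixture plus surfactant. Plants stay in the greenhouse about 10 d before visual injury scoring on a 0 to 100 scale versus untreated controls.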

[2] = system: pigweed (Amaranthus retroflexus); assay: Test A preemergence; settings: Amaranthus retroflexus, pre-emergence, 240 h, 0 to 100 scale where 0 is no effect and 100 is complete control, read-out: Pigweed plant response rating
[3] = system: ragweed (common ragweed, Ambrosia elatior); assay: Test A preemergence; settings: Ambrosia artemisiifolia, pre-emergence, 240 h, 0 to 100 scale where 0 is no effect and 100 is complete control, read-out: Ragweed plant response rating
Procedure, shortened: as §1

[4] = system: giant foxtail (Setaria faberii); assay: Test A preemergence; settings: Setaria faberi, pre-emergence, 240 h, 0 to 100 scale where 0 is no effect and 100 is complete control, read-out: Foxtail, Giant plant response rating
Procedure, shortened: as §1

[5] = system: ryegrass, Italian (Italian ryegrass, Lolium multiflorum); assay: Test A preemergence; settings: Lolium multiflorum, pre-emergence, 240 h, 0 to 100 scale where 0 is no effect and 100 is complete control, read-out: Ryegrass, Italian plant response rating
Procedure, shortened: as §1

[6] = system: barnyardgrass (Echinochloa crus-galli); assay: Test A preemergence; settings: Echinochloa crus-galli, pre-emergence, 240 h, 0 to 100 scale where 0 is no effect and 100 is complete control, read-out: Barnyardgrass plant response rating
Procedure, shortened: as §1

[7] = system: corn (Zea mays); assay: Test A postemergence; settings: Zea mays, post-emergence, 240 h, read-out: Corn plant response rating (0 to 100 scale)
Procedure, shortened: as §1

[8] = system: Galium (catchweed bedstraw, Galium aparine); assay: Test A postemergence; settings: Galium, post-emergence, 240 h, read-out: Galium plant response rating (0 to 100 scale)
Procedure, shortened: as §1

[9] = system: blackgrass (Alopecurus myosuroides); assay: Test A postemergence; settings: Alopecurus myosuroides, post-emergence, 240 h, read-out: Blackgrass plant response rating (0 to 100 scale)
Procedure, shortened: as §1

[10] = system: Kochia (Kochia scoparia); assay: Test A postemergence; settings: Bassia scoparia, post-emergence, 240 h, read-out: Kochia plant response rating (0 to 100 scale)
Procedure, shortened: as §1

[11] = system: pigweed (Amaranthus retroflexus); assay: Test A postemergence; settings: Amaranthus retroflexus, post-emergence, 240 h, read-out: Pigweed plant response rating (0 to 100 scale)
Procedure, shortened: as §1

[12] = system: ragweed (common ragweed, Ambrosia elatior); assay: Test A postemergence; settings: Ambrosia artemisiifolia, post-emergence, 240 h, read-out: Ragweed plant response rating (0 to 100 scale)
Procedure, shortened: as §1

[13] = system: giant foxtail (Setaria faberii); assay: Test A postemergence; settings: Setaria faberi, post-emergence, 240 h, read-out: Foxtail, Giant plant response rating (0 to 100 scale)
Procedure, shortened: as §1

[14] = system: wheat (Triticum aestivum); assay: Test A postemergence; settings: Triticum aestivum, post-emergence, 240 h, read-out: Wheat plant response rating (0 to 100 scale)
Procedure, shortened: as §1

[15] = system: ryegrass, Italian (Italian ryegrass, Lolium multiflorum); assay: Test A postemergence; settings: Lolium multiflorum, post-emergence, 240 h, read-out: Ryegrass, Italian plant response rating (0 to 100 scale)
Procedure, shortened: as §1

[16] = system: barnyardgrass (Echinochloa crus-galli); assay: Test A postemergence; settings: Echinochloa crus-galli, post-emergence, 240 h, read-out: Barnyardgrass plant response rating (0 to 100 scale)
Procedure, shortened: as §1

[17] = system: sedge, umbrella (small-flower umbrella sedge, Cyperus difformis); assay: Test B flooded paddy test; settings: Cyperus difformis, 250 g ai/ha, Flood; 0 to 100 scale where 0 is no effect and 100 is complete control; read-out: Sedge, Umbrella plant response rating
Procedure, shortened: (§2)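 Visual ratings (0 none to 100 complete control) are relative to untreated plants, taken 13–15 d after treatment in a greenhouse. Test material went straight into floodwater standing 3 cm above the soil, kept constant, on plants at the 2-leaf stage.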

[18] = system: rice (Oryra sativa); assay: Test B flooded paddy test; settings: Oryza sativa, 250 g ai/ha, Flood; 0 to 100 scale where 0 is no effect and 100 is complete control; read-out: Rice plant response rating
Procedure, shortened: as §2

[19] = system: ducksalad (Heteranthera limosa); assay: Test B flooded paddy test; settings: Heteranthera limosa, 250 g ai/ha, Flood; 0 to 100 scale where 0 is no effect and 100 is complete control; read-out: Ducksalad plant response rating
Procedure, shortened: as §2

[20] = system: barnyardgrass (Echinochloa crus-galli); assay: Test B flooded paddy test; settings: Echinochloa crus-galli, 250 g ai/ha, Flood; 0 to 100 scale where 0 is no effect and 100 is complete control; read-out: Barnyardgrass plant response rating
Procedure, shortened: as §2

[21] = 125 g ai/ha, preemergence, visual injury rating, approximately 10 d
[22] = 125 g ai/ha, postemergence, visual injury vs untreated controls after approx. 10 d, 0 = no effect, 100 = complete control
[23] = Postemergence, 31 g ai/ha, 0 is no effect, 100 is complete control

CN1C[C@H](c2ccc(C#N)c(F)c2)[C@@H](C(=O)Nc2cccc(F)c2F)C1=O [Compound 1192]
pest or weed control at 31 g/ha ([1]; 31 g ai/ha, Preemergence): 0%
pest or weed control at 125 g/ha [1, 21]: 50%
pest or weed control at 31 g/ha ([2]; 31 g ai/ha, Preemergence): 0%
pest or weed control at 125 g/ha [2, 21]: 30%
pest or weed control at 31 g/ha ([3]; 31 g ai/ha, Preemergence): 0%
pest or weed control at 125 g/ha [3, 21]: 0%
pest or weed control at 31 g/ha ([4]; 31 g ai/ha, Preemergence): 30%
pest or weed control at 125 g/ha [4, 21]: 100%
pest or weed control at 31 g/ha ([5]; 31 g ai/ha, Preemergence): 0%
pest or weed control at 125 g/ha [5, 21]: 0%
pest or weed control at 31 g/ha ([6]; 31 g ai/ha, Preemergence): 70%
pest or weed control at 125 g/ha [6, 21]: 100%
plant injury at 125 g/ha [7, 22]: 40%
plant injury at 31 g/ha [7, 23]: 0%
pest or weed control at 125 g/ha [8, 22]: 50%
pest or weed control at 31 g/ha [8, 23]: 0%
pest or weed control at 125 g/ha [9, 22]: 0%
pest or weed control at 31 g/ha [9, 23]: 0%
pest or weed control at 125 g/ha [10, 22]: 40%
pest or weed control at 31 g/ha [10, 23]: 0%
pest or weed control at 125 g/ha [11, 22]: 20%
pest or weed control at 31 g/ha [11, 23]: 0%
pest or weed control at 125 g/ha [12, 22]: 0%
pest or weed control at 31 g/ha [12, 23]: 0%
pest or weed control at 125 g/ha [13, 22]: 70%
pest or weed control at 31 g/ha [13, 23]: 40%
plant injury at 125 g/ha [14, 22]: 0%
plant injury at 31 g/ha [14, 23]: 0%
pest or weed control at 125 g/ha [15, 22]: 0%
pest or weed control at 31 g/ha [15, 23]: 0%
pest or weed control at 125 g/ha [16, 22]: 100%
pest or weed control at 31 g/ha [16, 23]: 50%
pest or weed control at 250 g/ha [17]: 30%
pest or weed control at 250 g/ha [18]: 30%
pest or weed control at 250 g/ha [19]: 95%
pest or weed control at 250 g/ha [20]: 100%
